Laboratory results published in ChEMBL document CHEMBL1140257, “Potential new antitumor agents from an innovative combination of camphorato, a ramification of traditional Chinese medicine, with a platinum moiety” (Bioorg Med Chem Lett, 2005).
pIC50: −log10 of the molar value.

Legend:
Homo sapiens [1] = assay: In vivo antitumor activity against LS-174T human colon carcinoma in mice at 9 (mg/kgper dose); format: functional, organism-based
Homo sapiens [2] = assay: Ratio of TRTV and CRTV at 9 (mg/kgper dose) in LS-174T human colon carcinoma implanted in mice; (TRTV=relative tumor volume of the treated group; CRTV=relative tumor volume of the control group); format: functional, organism-based
Homo sapiens [3] = assay: Ratio of TRTV and CRTV at 6 (mg/kgper dose) in LS-174T human colon carcinoma implanted in mice; (TRTV=relative tumor volume of the treated group; CRTV=relative tumor volume of the control group); format: functional, organism-based
Homo sapiens [4] = assay: In vivo antitumor activity against LS-174T human colon carcinoma in mice at 6 (mg/kgper dose); format: functional, organism-based
A549 = assay: In vitro Inhibitory Concentration against A549 human lung carcinoma cell line; Tested by sulforhodamine B colorimetric assay; format: functional, cell-based
[5] = In vitro Inhibitory concentration against 3AO human ovarian carcinoma cell line; Tested by sulforhodamine B colorimetric assay; format: functional
Bel-7402 = assay: In vitro Inhibitory concentration against BEL-7402 human hepatocarcinoma cell line; Tested by sulforhodamine B colorimetric assay; format: functional, cell-based
HL-60 = assay: In vitro Inhibitory concentration against HL-60 human leukemia cell line; Tested by trypan blue exclusion test; format: functional, cell-based

pIC50 (A549) | pIC50 [5] | pIC50 (Bel-7402) | pIC50 (HL-60) | Sequence | Inhibition tumor index (Homo sapiens [1]) [%] | T/C (Homo sapiens [2]) [%] | T/C (Homo sapiens [3]) [%] | Inhibition tumor index (Homo sapiens [4]) [%]
– | – | – | – | OXALIPLATIN | 51 | 50.8 | 87.4 | 24
5.65 | 6.33 | 6.11 | 6.48 | CISPLATIN | – | – | – | –
4.37 | 4.54 | 4.44 | 5.54 | CARBOPLATIN | – | – | – | –
